Two compounds from patent US5620676A, “Biologically active ATP analogs” (priority 1995, dated 1997) can be followed below.

The target of assay [1] is P2Y receptor (mesenteric artery). As to the kind of experiment: Relaxation of rabbit mesenteric artery. The following applies: log molar units.
Excerpt: Muscular relaxation/contraction: Relaxant responses mediated via P2Y receptors were examined in guinea pig taenia coli, rabbit aorta, and rabbit mesenteric artery, as described by Hoyle et al. (Br. J. Pharmacol., 107, 367-374 (1992a)), Burnstock et al., (Br. J. Pharmacol., 90, 383-391 (1987a)), and Rubino et al., (Eur. J. Pharmacol., 212, 237-240 (1992)).
The target in assay [2] is T1, P2X receptor (saphenous artery) (Oryctolagus cuniculus, UniProt G1U3D6).
T1 construct: and rabbit saphenous artery; from tissue; host or cells: rabbit saphenous artery
T1 sequence (G1U3D6 1-399): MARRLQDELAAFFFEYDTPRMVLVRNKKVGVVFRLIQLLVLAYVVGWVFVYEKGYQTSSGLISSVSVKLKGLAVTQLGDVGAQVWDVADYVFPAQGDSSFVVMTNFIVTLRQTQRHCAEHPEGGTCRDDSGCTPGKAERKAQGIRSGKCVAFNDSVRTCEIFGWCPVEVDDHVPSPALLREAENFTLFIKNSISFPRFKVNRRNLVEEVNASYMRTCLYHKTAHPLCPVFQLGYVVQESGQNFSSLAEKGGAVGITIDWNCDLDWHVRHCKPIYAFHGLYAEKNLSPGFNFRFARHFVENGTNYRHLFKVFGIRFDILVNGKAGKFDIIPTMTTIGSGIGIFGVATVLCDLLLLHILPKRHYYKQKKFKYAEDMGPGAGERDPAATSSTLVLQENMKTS
Nature of the assay: Contraction of rabbit saphenous artery. The following applies: rabbit saphenous artery; for activation at 10 µM: read-out: response at 10 μM relative to the contraction produced by 1 μM α,MeATP, saph. artery. The method, boiled down: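 Contraction of isolated rabbit saphenous artery, standard organ-bath methods; responses at 10 μM expressed as percentage of contraction produced by 1 μM α,MeATP. Highest analogue concentrations tested were 3-30 […].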

The target of assay [3] is T2, adenylyl cyclase linked P2Y receptor (C6 rat glioma cells) (Rattus norvegicus, UniProt Q9EPX4).
T2 construct: endogenous in cells; host or cells: C6 rat glioma cells
T2 sequence (Q9EPX4 whole entry): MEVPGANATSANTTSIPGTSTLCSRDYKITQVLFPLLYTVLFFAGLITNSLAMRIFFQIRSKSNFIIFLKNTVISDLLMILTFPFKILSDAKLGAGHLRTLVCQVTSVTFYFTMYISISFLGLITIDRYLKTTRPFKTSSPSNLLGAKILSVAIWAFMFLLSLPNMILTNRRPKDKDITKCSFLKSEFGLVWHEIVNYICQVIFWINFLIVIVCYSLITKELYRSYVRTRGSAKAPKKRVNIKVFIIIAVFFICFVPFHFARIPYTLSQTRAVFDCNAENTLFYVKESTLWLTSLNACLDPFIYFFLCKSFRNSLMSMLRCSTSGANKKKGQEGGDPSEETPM
As to the kind of experiment: Inhibition of adenylyl cyclase in C6 rat glioma cells. The following applies: for selectivity for the adenylyl cyclase linked (C6 cell) receptor: versus phospholipase C linked turkey erythrocyte receptor. Type of assay: cell-based. The method, boiled down:
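C6 cells labelled 2 h with [3H]adenine, preincubated 10 min at 37 °C in HEPES-buffered Eagle's medium (pH 7.5) with 200 μM IBMX. Stimulated 10 min with 10 μM isoproterenol plus varied nucleotide concentrations. Stopped with ice-cold 5% trichloroacetic acid.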

The target in assay [4] is T3, P2Y receptor (turkey erythrocyte membranes) (Meleagris gallopavo, UniProt P49652).
T3 construct: from tissue; host or cells: washed turkey erythrocytes, ghosts prepared by hypotonic lysis
T3 sequence (P49652 whole entry): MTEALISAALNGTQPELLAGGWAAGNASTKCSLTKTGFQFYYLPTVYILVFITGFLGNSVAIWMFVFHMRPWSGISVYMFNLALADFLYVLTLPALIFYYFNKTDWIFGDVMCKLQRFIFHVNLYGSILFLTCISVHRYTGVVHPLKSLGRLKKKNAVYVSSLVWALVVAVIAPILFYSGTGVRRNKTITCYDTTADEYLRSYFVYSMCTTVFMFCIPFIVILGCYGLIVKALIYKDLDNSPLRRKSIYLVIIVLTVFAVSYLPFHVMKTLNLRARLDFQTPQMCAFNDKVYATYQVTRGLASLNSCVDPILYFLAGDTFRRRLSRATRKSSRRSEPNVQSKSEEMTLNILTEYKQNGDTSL
Nature of the assay: Stimulation of phospholipase C (inositol phosphate formation) in turkey erythrocyte membranes. The format is biochemical. The following applies: for maximal level (100%) of [3H]inositol phosphate accumulation: with GTPγS and maximal concentration of agonist. In a few lines: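 Erythrocytes were labelled 18-24 h at 37 °C with [3H]myoinositol, and ghosts were made by hypotonic lysis. Ghosts (≈175 μg protein) were incubated 5 min at 30 °C in Hepes buffer pH 7.0 with 1 μM GTPγS and nucleotide analogs. Total [3H]inositol phosphates were purified by anion exchange; K0.5 averaged from 3-8 dose-response curves.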

For assay [5], the system named is P2Y receptor (aorta endothelium). Nature of the assay: Relaxation of noradrenalin-contracted rabbit aorta. The following applies: rabbit aorta; log molar units.
Excerpt: Muscular relaxation/contraction: Relaxant responses mediated via P2Y receptors were examined in guinea pig taenia coli, rabbit aorta, and rabbit mesenteric artery, as described by Hoyle et al. (Br. J. Pharmacol., 107, 367-374 (1992a)), Burnstock et al., (Br. J. Pharmacol., 90, 383-391 (1987a)), and Rubino et al., (Eur. J. Pharmacol., 212, 237-240 (1992)). Contractile responses mediated via P2X receptors were examined in the guinea pig urinary bladder and vas deferens, and rabbit saphenous artery, also using standard methods (see Hoyle et al., supra., 1992; Hoyle et al., Br. J. Pharmacol., 99, 617-621 (1990); and Burnstock et al., Br. J. Pharmacol., 90, 111-120 (1987b)).
In FIG. 14, the x-axis is also marked in units of the negative log of the molar concentration of applied putative P2Y receptor agonists and the y-axis is marked in units of the percentage relaxation of the 1 μM noradrenalin-induced contraction of rabbit aorta endothelium. In FIGS. 15-16, the x-axis is marked in units of the negative log of the molar concentration of applied putative p^2X receptor agonists and the y-axis is marked in units of the percentage contraction relative to a standard dose of KCl (i.e., 60 mM), as assessed in guinea pig isolated urinary bladder detrussor muscle (FIG. 15) and guinea pig isolated vas deferens (FIG. 16).
The mark [6] stands for this setting: turkey erythrocyte membranes, mean ± S.E.M. for at least 2 determinations, read-out: phosphatidyl inositol metabolism (K0.5, nM) erythrocyte.

Molecules are shown by their SMILES. Where “and” joins values, the source holds several entries; their conditions need not be identical. Identical values can stand only once. Entries after “also recorded” stand apart in the source; their conditions may differ. Like-named read-outs stand apart in the source and are kept apart here.

On to `N#CCCCCCCSc1nc(N)c2ncn([C@@H]3O[C@H](COP(=O)(O)OP(=O)(O)OP(=O)(O)O)[C@@H](O)[C@H]3O)c2n1` [2-(6-Cyanohexylthio)-ATP, 2-(6-Cyanohexylthio)adenosine-5'-triphosphate], for which, in assay [1], the “relaxation pD2, mes. artery” value is listed as 7.0. Besides, the “activity/potency in words, saphenous artery” value in assay [2] was “at best weak agonists in the saphenous artery”. For the same compound, the activation at 10 µM in assay [2] was determined as 9.2%. Besides, in assay [3], the “selectivity for the adenylyl cyclase linked (C6 cell) receptor” value was 3.9 -fold. In addition, in assay [4] (turkey erythrocyte membranes), the “activity/potency in words, turkey erythrocyte” value is given as “at least two orders of magnitude more potent; also recorded: about three orders of magnitude more potent”. In addition, the EC50 was 10 ± 5 nM in assay [4] (setting [6]); 5 to 30 nM and ~10 nM in assay [4] (turkey erythrocyte membranes, read-out: K0.5). The “maximal level (100%) of [3H]inositol phosphate accumulation” value in assay [4] was determined as 6000 cpm. For the same compound, in assay [5], the “relaxation pD2, aorta” value is given as 6.9.

With `C=CCCCCSc1nc(NC)c2ncn([C@@H]3O[C@H](COP(=O)(O)OP(=O)(O)OP(=O)(O)O)[C@@H](O)[C@H]3O)c2n1` [N^6 -Me-2-(5-hexenyl)-thio-ATP, N^6 -Me-2-(5-hexenylthio)adenosine 5'-triphosphate], the “relaxation pD2, mes. artery” value in assay [1] is given as 6.0. Also, the activation at 10 µM in assay [2] was determined as 1.5%. Further, in assay [3] (C6 rat glioma cells, 10 μM isoproterenol, read-out: K0.5 values (in nM) for inhibition of adenylyl cyclase in C6 cells), the IC50 turned out to be 0.32 nM. Also, in assay [3], the “selectivity for the adenylyl cyclase linked (C6 cell) receptor” value was 81 -fold. Also, the “fold diminished potency upon N6-methylation, turkey erythrocyte” value in assay [4] (relative to 2-(5-hexenyl)thio-ATP) is 2.6 -fold. For the same compound, the EC50 in assay [4] (setting [6]) turned out to be 26 ± 7 nM; in assay [4] (turkey erythrocyte membranes, read from graph, read-out: K0.5), 10 nM. In assay [4], the “maximal level (100%) of [3H]inositol phosphate accumulation” value came to 9150 cpm. For the same compound, the “relaxation pD2, aorta” value in assay [5] amounted to 5.6.
